Drawing on patent EP0535104B1, “HETEROCYCLIC COMPOUNDS AND THEIR PREPARATION AND USE” (NOVO NORDISK A/S, priority 1990, dated 1992), this text covers ED50 for 4 compounds.

In this assay the test system is benzodiazepine receptors. Kind of assay: in vivo displacement of radioactive labelled flunitrazepam from benzodiazepine receptors. The note with it: dose which causes the specific binding of flunitrazepam to benzodiazepine receptors in a living brain to be reduced to 50% of the control value; test as described in US 4,774,245. The text has this:
The pharmaceutical properties of the compounds of the invention can be illustrated by determining their capability for displacing radioactive labelled flunitrazepam from benzodiazepine receptors.
The displacement activity of the compounds of the invention may be found by determining the ED50 value. The ED50 value represents the dose (mg/kg) of a test substance which causes the specific binding of flunitrazepam to benzodiazepine receptors in a living brain to be reduced to 50% of the control value.
Such an in vivo test is carried out as described in US 4,774,245.
What is called ED50 is the dose at which the effect has come halfway, by size or by number of responders. As for `CN(C)c1nc2ccccc2n2cnc(-c3noc(C4CC4)n3)c12.Cl` [Compound 4, 3-(5-cyclopropyl-1,2,4-oxadiazol-3-yl)-4-dimethylamino-imidazo[1,5-a]quinoxaline hydrochloride], the ED50 amounted to 4.1 mg/kg.

As for `CN(C)c1nc2c(-c3noc(C4CC4)n3)ncn2c2ccccc12` [Compound 13, 3-(5-cyclopropyl-1,2,4-oxadiazol-3-yl)-5-dimethylamino-imidazo[1,5-a]quinazoline], the ED50 was determined as 1.5 mg/kg.

On to `c1ccc2c(c1)c(N1CCOCC1)nc1c(-c3noc(C4CC4)n3)ncn12` [Compound 14, 3-(5-cyclopropyl-1,2,4-oxadiazol-3-yl)-5-morpholino-imidazo[1,5-a]quinazoline], for which the ED50 is recorded as 1.9 mg/kg.

Regarding `c1ccc2c(c1)c(N1CCOCC1)nc1c(-c3nc(C4CC4)no3)ncn12` [Compound 19, 3-(3-cyclopropyl-1,2,4-oxadiazol-5-yl)-5-morpholino-imidazo[1,5-a]quinazoline], the median effective dose (ED50) was 1.6 mg/kg.
